Measurements as given in patent US8263642B2, “Antimicrobial compounds and methods of use thereof” (Vanderbilt University, priority 2008, dated 2012).

Experiments:
[1] = tested on: HssRS-dependent hrtAB expression; assay: Luminescence-based assay to monitor HssRS-dependent hrtAB expression (phrtABlux reporter), Newman; format: cell-based, Staphylococcus aureus; settings: raw luminescence value obtained in a luminometer; Newman
Protocol: (§1) With reference to Table 1, “Luminescence” refers to the raw luminescence value obtained in a luminomter. “Control (82.5 nm)” refers to the luminescence value obtained from heme at 82.5 nM as a positive control in the same plate as the experimental. “% lum” is the percentage of luminescence induced by the compound as compared to the heme control in the same plate. […] All of these assays are described in the application. […] “N/T” indicates the test was not performed.
A hrtAB-driven expression system was created in the pXen vector system (Xenogen) (Francis, K. P., D. Joh, C. Bellinger-Kawahara, M. J. Hawkinson, T. F. Purchio, and P. R. Contag. 2000. Monitoring bioluminescent Staphylococcus aureus infections in living mice using a novel luxABCDE construct. Infect Immun 68:3594-3600). This vector contains a promoterless luxCDABE operon from Photorabdus luminescens which produces blue green light when expressed. The luxCDABE encodes for a fatty acid reductase (LuxCDE) that produces a long chain fatty aldehyde which, when combined with cellular flavin mononucleotide, is oxidized by a luciferase (LuxAB) to produce light. Therefore, this system is useful in that it bypasses the need for substrate addition and is capable of generating light in the absence of any added reagents. Furthermore, the luminescent signal produced by the combined activities of LuxAB and LuxCDE is of sufficient intensity to be visualized in unmanipulated intact bacteria.
To establish an assay that measures HssRS-dependent expression of luxCDABE, the promoter for hrtAB upstream of luxCDABE was cloned and transformed this vector (phrtABlux) into wildtype and ΔhssR S. aureus. A promoterless vector (plux) and a plasmid containing luxCDABE under the control of a constitutive promoter (psrtAlux) (Mazmanian, S. K., G. Liu, H. Ton-That, and O. Schneewind. 1999. “Staphylococcus aureus sortase, an enzyme that anchors surface proteins to the cell wall.” Science 285:760-763) were included as negative and positive controls, respectively. Initially, wildtype S. aureus harboring either plux, phrtABlux, or psrtAlux were plated on solid medium that either lacked heme or contained 4 μM heme. Only wildtype S. aureus containing psrtAlux produced light on solid media regardless of the presence or absence of heme. […] Light was not produced by bacteria containing plux in either condition.
To adapt this system for a HTS to measure ligand recognition by HssRS, luminescence of wildtype and ΔhssR harboring the above listed plasmids in liquid media with or without heme was measured. […] Taken together, these experiments establish a whole cell […] assay that can identify small molecule modifiers of HssRS. This screen, in some aspects, can identify molecules that can be used as molecular probes in structure-function analyses to determine the mechanism by which S. aureus sense host heme.
Upon staphylococcal exposure to heme, HssRS senses heme and activates expression of hrtAB. This process can be measured using a reporter assay that employs a vector encoding the light-producing luxCDABE operon under the control of the hrtAB promoter. This assay results in whole cell luminescence upon HssRS-dependent activation of hrtAB, forming the foundation for the development of an assay suitable for high-throughput screens for small molecule activators of HssRS.
To develop an automated HTS format, S. aureus wildtype and ΔhssR harboring reporter constructs (psrtAlux, phrtAlux, plux) can be grown for 15 hours at 37° C. in tryptic soy broth (TSB) containing 10 μg/ml chloramphenicol. The addition of chloramphenicol is useful to ensure that the staphylococci propagate the reporter plasmid upon cell division. Following growth, bacterial cultures can be normalized and 2×10^7 cells (approximately 2 μl) can be added to individual wells of black walled, clear bottomed, 96-well plates. […]

[2] = tested on: hrtAB-driven expression of the xylE reporter gene; assay: XylE reporter assay (hrtAB promoter-xylE), Newman; format: cell-based, Staphylococcus aureus; settings: for XylE (0.05): level of XylE induction at 0.05 uM of the compound; for XylE (0.5): level of XylE induction at 0.5 uM of the compound; for XylE (5.0): level of XylE induction at 5.0 uM of the compound; for XylE (50.0): level of XylE induction at 50.0 uM of the compound
Protocol: as §1
Compounds that activate HssRS-driven hrtAB expression in the luciferase-based screen can be subjected to two separate counter screens to confirm these compounds as active hits. First, compounds of interest can be tested for their ability to activate expression of hrtAB in the XylE expression assay described hereinbelow. This is an in vitro assay that measures hrtAB-driven expression of the xylE reporter gene. The XylE-based reporter assay utilizes slightly more manipulations than the primary luciferase-based screen. […] It should be appreciated that a shortcoming of this counter screen is that it measures reporter gene expression, which is a similar activity as that measured in the primary assay. To address this shortcoming, compounds that are positive in both XylE- and luciferase-based assays can be subjected to a second counter screen as described hereinbelow.
S. aureus strains harboring the appropriate reporter construct were inoculated into 500 μl of TSB containing 10 μg/ml chloramphenicol in 1.5 ml tubes. Cultures were grown O/N at 37° C. with shaking. Bacteria were pelleted by centrifugation and spent medium was aspirated. The pellet was washed once with 500 μl of 20 mM potassium phosphate, pH 7.6, and resuspended in 150 μl of 100 mM potassium phosphate buffer, pH 8.0, 10% (v/v) acetone, 25 μg/ml lysostaphin. After 20 minute incubation at 37° C. and 5 minute incubation on ice, samples were centrifuged at 20,000 g for 30 minutes at 4° C. 1-10 μl of supernatant was added to a 96-well plate and 200 μl of 100 mM potassium phosphate, pH 8.0, 0.2 mM pyrocatechol was added to each well. Formation of 2-hydroxymuconic semialdehyde was tracked by measuring the absorbance at 375 nm every minute for 30 minutes on a Varian MP 50 microplate reader. Protein concentration in samples was determined by BCA (Pierce). One unit of specific activity of XylE in a sample is defined as the formation of 1 nmol of 2-hydroxymuconic semialdehyde per minute per milligram of cellular protein at 30° C. (Chien, Y., Manna, A. C., Projan, S. J., and Cheung, A. L. 1999, “SarA, a global regulator of virulence determinants in Staphylococcus aureus, binds to a conserved motif essential for sar-dependent gene regulation. J. Biol. Chem. 274, 37169-37176).
The hrtAB intergenic region was fused to the xylE structural gene by PCR-SOE. In the first reaction, primer P1B:[…] and P2B:[…] were used to amplify the hrtAB intergenic region from S. aureus strain Newman genomic DNA. In the second PCR reaction primers P3B:[…] and P4B:[…] were used to amplify the xylE structural gene using pALC1639 template DNA (provided by Dr. Ambrose Cheung) and PCR product purified using a Qiagen gel extraction kit. For the PCRSOE reaction, a 1:300 dilution of purified reaction 1 and reaction 2 PCR products was mixed and amplified by PCR using […]. This yielded a construct in which the hrtAB intergenic region is fused to the xylE gene in such a manner that the position of the start codon for xylE corresponds to the position of the start codon for […] in the hrtAB locus. The hrtAB promoter-xylE fusion DNA was then subcloned into pOS1. As a control we also constructed a promoterless xylE vector. The xylE gene was amplified from pACL1639 template DNA using the primers P1C:[…] and P2C:[…] and then cloned into the pOS1 vector.

Row | SMILES | Luminescence [1] | XylE (0.05) [2] | XylE (0.5) [2] | XylE (5.0) [2] | XylE (50.0) [2]
1 | CCCCCCC(=O)NC(NC(=S)Nc1ccccc1O)C(Cl)(Cl)Cl (stereo not shown) | 2766 | 0.5 | 0.2 | 0.04 | 0.03
2 | Cc1c(-c2ccccc2)nc2ccccc2c1C(=O)Nc1ccccc1C(F)(F)F | 2424 | 0.5 | 0.7 | 0.03 | 0.02
3 | O=C1C2=C(Nc3nn(-c4ccccc4)c(O)c3C2c2ccc([N+](=O)[O-])cc2)c2ccccc21 (stereo not shown) | 2608 | 0.4 | 1 | 0.3 | 1
4 | CCOC(=O)c1c(NC(=O)C2CCCCC2)sc(C(=O)Nc2ccc(C)c(Cl)c2)c1C | 2374 | 8 | 2 | 1 | 1
5 | Oc1ccc(Nc2n[n+](-c3ccc(Cl)cc3)cc3ccccc23)cc1 | 2098 | 0.5 | 6 | 1 | 0.6
6 | COc1ccccc1N1C(=O)c2ccc(C(=O)OC(C)C(=O)c3ccc(C)cc3)cc2C1=O (stereo not shown) | 3189 | 1 | 0.6 | 0.7 | 1
7 | Oc1ccc(Nc2nc(-c3ccc(Cl)cc3)nc3ccccc23)cc1 | 3096 | 1 | 1 | 1 | 1
8 | CC(C)c1ccc(NS(=O)(=O)c2ccc3[nH]c(-c4ccccc4)nc3c2)cc1 | 2146 | 1 | 1 | 9 | 1
9 | CCOc1ccc(NC(=O)c2sc3nc(C)nc(N4CCCCC4)c3c2C)cc1 | 2277 | 1 | 0.07 | 1 | 1
10 | O=C(Nc1ccc(-c2csc(Nc3cccc(Cl)c3)n2)cc1)c1ccccc1 | 3586 | 1 | 0.07 | 1 | 0.08
11 | CCC(C)NC(=O)c1sc2nc(C)nc(N3CCCCC3)c2c1C (stereo not shown) | 2301 | 1 | 1 | 1 | 7
12 | Brc1ccc2[nH]cc(-c3nc(-c4ccccc4)c(-c4ccccc4)[nH]3)c2c1 | 2549 | 0.4 | 2 | 1 | 1
13 | COc1ccc(OC(=O)c2ccc(N3C(=O)C4C5CCC(C5)C4C3=O)cc2)cc1 (stereo not shown) | 3096 |  | 0.09 | 0.03 | 0.02
14 | O=C(Nc1c2c(nn1-c1ccc(Cl)cc1)CSC2)c1cccc(C(F)(F)F)c1 | 2866 |  | 0.03 | 0.04 | 0.06
15 | Cc1ccc(-c2nc(Nc3ccc4c(c3)OCO4)c3ccccc3n2)cc1 | 2101 |  | 0.04 | 0 | 0
16 | O=c1c2ccccc2nc(/C=C\c2ccccc2F)n1-c1ccccc1F | 3115 |  | 1 | 0 | 0
17 | Nc1ccccc1C(=O)Nc1nc2ccc(Cl)cc2s1 | 1741 |  | 0.01 | 0.03 | 0.04
18 | Cc1ccc2c(c1)C(c1ccccc1)=NNC(c1ccccc1)=N2 | 2763 |  | 0 | 0.2 | 0.4
19 | COc1ccccc1-c1csc(NC(=O)c2ccc(-c3ccccc3)cc2)n1 | 1704 |  | 0.05 | 1 | 1
